Values quoted from earlier work in patent publication US12685722B2, “Compositions of matter and pharmaceutical compositions” (Atai Therapeutics, Inc., priority 2020, dated 2026).

CN(C)CCc1c[nH]c2cccc(O)c12 [psilocin]
in vivo half-life: about 50 minutes
psychedelic experiences lasting (in vivo): 4 to 6 h
